The conditions of series [1]: rodents; ref [7]–[9]; cited from earlier work.
A short description of a further series: aqueous solubility. The format is physicochemical.
The conditions of series [2]: over 24 h; ref [16]; cited from earlier work.
Series [3] relates to renal carcinoma cell line 786-0. Nature of the series: potency toward MDR-1 expressing 786-0 cells with and without verapamil. It is filed as cell-based.
For series [4], the system named is MDA-MB-231 breast cancer model. As to conditions: continued dosing at 40 mg/kg (½MTD), ref [16], cited from earlier work.
The next series deals with MCF-7 cancer cells. As to conditions: read-out: MCF-7 IC50; Table 1; ref [17]–[20]; cited from earlier work.
For another series, the system named is A2780cis. Nature of the series: potency toward A2780cis. The format is cell-based, human. Particulars: read-out: drug IC50 A2780cis; cisplatin resistant.
A further series relates to A2780ADR. Briefly: potency toward A2780ADR. It is filed as cell-based, human. Particulars: read-out: drug IC50 A2780ADR; adriamycin resistant, MDR-1 overexpression.

A word on the LD50: it is the dose expected to kill half of the subjects tested. For the compound `COc1cc2c(c(OC)c1OC)-c1ccc(OC)c(=O)cc1[C@@H](NC(C)=O)CC2` [Compound 1, colchicine], the LD50 in series [1] is recorded as less than 5 mg/kg. For `COc1cc(C(=O)c2c(C)oc3c(O)c(OC)ccc23)cc(OC)c1OC` [Compound 8, 7-hydroxy-6-methoxy-2-methyl-3-(3,4,5-trimethoxybenzoyl)benzo-[b]furan], in “aqueous solubility”, the aqueous solubility result is “poor”. Further, the “clearance from healthy tissues” value in series [2] was “completely cleared from healthy tissues over 24 h”. In addition, in series [3], the MDR-1 transporter substrate result was “not a substrate for the MDR-1 transporter”. With `COc1cc(C(=O)c2c(C)oc3c(OP(=O)([O-])[O-])c(OC)ccc23)cc(OC)c1OC.[Na+].[Na+]` [Compound 9, Disodium (6-Methoxy-2-methyl-3-(3,4,5-trimethoxybenzoyl)benzofuran-7-yl)phosphate], in series [4] (after 70 days), the “complete eradication of tumors, % of the mice” value is reported as 14%. Besides, in series [4], the “tumor growth on continued dosing” value is reported as “completely suppresses tumor growth”. In general, IC50 refers to the concentration needed to halve the response being measured. For the compound `COc1ccc(-c2sccc2C(=O)c2cc(OC)c(OC)c(OC)c2)cc1O` [Compound 14], the IC50 in the series with MCF-7 cancer cells is 300 ± 400 nM. On to `N.N.[Cl][Pt][Cl]` [cisplatin], for which the IC50 in the series with A2780cis stood at 5.02 µM; in the series on A2780ADR, 1100 nM.

Values taken from publication PMC3172808 (Journal of medicinal chemistry, 2011).
